Experimental findings from patent US8263595B2, “Triazolopyridine compounds and their use as ask inhibitors” (Merck Serono SA, priority 2007, dated 2012) are described below.

Where a name gives a salt, the structure may show the parent alone.

One test deals with T1, human recombinant ASK1 (Homo sapiens, UniProt Q99683).
T1 sequence (Q99683 1-1374): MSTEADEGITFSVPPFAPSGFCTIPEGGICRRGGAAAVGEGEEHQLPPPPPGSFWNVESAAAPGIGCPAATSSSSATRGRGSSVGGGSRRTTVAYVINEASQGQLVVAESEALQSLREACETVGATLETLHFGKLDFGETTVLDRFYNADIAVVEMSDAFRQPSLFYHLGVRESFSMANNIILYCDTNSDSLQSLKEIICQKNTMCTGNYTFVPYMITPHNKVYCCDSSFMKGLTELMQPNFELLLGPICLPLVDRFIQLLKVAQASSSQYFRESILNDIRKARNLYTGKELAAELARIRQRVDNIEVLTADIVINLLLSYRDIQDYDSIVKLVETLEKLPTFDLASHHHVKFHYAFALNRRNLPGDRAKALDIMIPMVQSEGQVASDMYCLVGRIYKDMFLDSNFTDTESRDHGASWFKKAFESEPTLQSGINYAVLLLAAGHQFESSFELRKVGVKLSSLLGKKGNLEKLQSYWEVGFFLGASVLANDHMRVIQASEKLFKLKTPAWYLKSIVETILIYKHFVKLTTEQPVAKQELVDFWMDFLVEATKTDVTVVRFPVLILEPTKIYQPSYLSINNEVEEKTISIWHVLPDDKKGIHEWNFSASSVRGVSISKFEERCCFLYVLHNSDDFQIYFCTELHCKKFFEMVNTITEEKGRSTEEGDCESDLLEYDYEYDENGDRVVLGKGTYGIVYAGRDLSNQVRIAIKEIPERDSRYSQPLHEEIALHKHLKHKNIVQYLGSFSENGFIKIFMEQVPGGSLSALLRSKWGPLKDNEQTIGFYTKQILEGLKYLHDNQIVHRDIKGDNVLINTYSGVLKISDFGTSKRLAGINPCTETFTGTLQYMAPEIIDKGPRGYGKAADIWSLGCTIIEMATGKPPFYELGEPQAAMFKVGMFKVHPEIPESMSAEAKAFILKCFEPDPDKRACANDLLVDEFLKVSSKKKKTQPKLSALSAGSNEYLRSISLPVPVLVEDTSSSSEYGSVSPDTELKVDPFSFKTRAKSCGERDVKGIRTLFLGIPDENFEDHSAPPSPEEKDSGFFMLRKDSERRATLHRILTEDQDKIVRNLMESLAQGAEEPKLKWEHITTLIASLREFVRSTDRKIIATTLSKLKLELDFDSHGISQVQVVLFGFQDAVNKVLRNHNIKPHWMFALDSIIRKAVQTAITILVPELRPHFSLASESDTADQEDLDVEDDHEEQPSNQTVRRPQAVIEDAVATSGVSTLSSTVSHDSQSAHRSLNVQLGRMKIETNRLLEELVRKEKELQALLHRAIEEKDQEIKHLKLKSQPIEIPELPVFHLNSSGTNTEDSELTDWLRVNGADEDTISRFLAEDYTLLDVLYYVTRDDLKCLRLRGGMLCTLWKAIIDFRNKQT
Briefly: Enzyme inhibition assay (in vitro ASK1 assay), luciferase-based measurement of remaining ATP. The note with it: human recombinant ASK1, MBP and ATP as substrates, 180 minutes at 30° C.; triplicates on at least 2 separate occasions. The test is classed as biochemical. Here is the method:
Assays were performed in a 384 well plate (Corning, #3654) format, using the human recombinant ASK1 as an enzyme and MBP (myelin basic protein, Upstate/Millipore, #13-104) with ATP as substrates. Assay read out was the measurement of the amount of ATP remaining after stopping the reaction, using a luciferase-based kit from Cambrex.
Compounds to be tested were dissolved in 100% DMSO at a concentration of 10 mM. Subsequent dilutions were performed in 100% DMSO using a Biomek FX Workstation. 5 μL of diluted compound or vehicle (6% DMSO) was distributed to a 384 well plate. 5 μL of substrates (ATP 7.5 μM, MBP 450 ng/μL) diluted in ASK1 buffer (20 mM Tris HCl pH 7.4, 0.001% Brij35, 0.01% BSA, 5 mM MgCl2, 1 mM DL-Dithiothreitol) were added, followed by 5 μL at of human recombinant ASK1 enzyme (22.5 ng/mL) diluted in ASK1 buffer in order to start the reaction. The reaction ran for 180 minutes at 30° C. before the addition of 5 μL of stop solution (Cambrex, #LT23-231). 10 μL of Pklight ATP detection reagent (Cambrex #LT23-233) were added. After 120 min of incubation, luminescence was measured on a Perkin-Elmer Victor 2 spectrofluorimeter. The percentage of inhibition relative to the fluorescence observed in the presence of solvent (1% DMSO) alone was determined. The IC50 values for inhibition were determined in triplicates on at least 2 separate occasions.
Broadly, the IC50 is the concentration at which inhibition is half-maximal. In the case of `O=C(Nc1nc2cccc(NC3CC3)n2n1)c1cccnc1` [Example 30, N-[5-(cyclopropylamino)[1,2,4]triazolo[1,5-a]pyridin-2-yl]nicotinamide], the IC50 stood at 1100 ± 500 nM.
`COC(=O)CCC(=O)Nc1nc2cccc(-c3ccoc3)n2n1` [Example 7, methyl 4-{[5-(3-furyl)[1,2,4]triazolo[1,5-a]pyridin-2-yl]amino}-4-oxobutanoate]: the IC50 was found to be 7000 ± 1000 nM.
`CN1CCC(Nc2cccc3nc(NC(=O)c4ccccc4)nn23)CC1` [Example 72, N-{5-[(1-methylpiperidin-4-yl)amino][1,2,4]triazolo[1,5-a]pyridin-2-yl}benzamide]: the IC50 is 4080 nM.
For the molecule `O=C(Nc1nc2cc(Cl)cc(NC3CCC3)n2n1)c1cccnc1` [Example 118, N-[7-chloro-5-(cyclobutylamino)[1,2,4]triazolo[1,5-a]pyridin-2-yl]nicotinamide], the concentration for half-maximal inhibition (IC50) was 87 ± 6 nM.
Consider `CC(C)(C)OC(=O)NCc1ccc(C(=O)Nc2nc3cccc(-c4ccoc4)n3n2)cc1` [Example 52, tert-butyl[4-({[5-(3-furyl)[1,2,4]triazolo[1,5-a]pyridin-2-yl]amino}carbonyl)benzyl]carbamate], for which the concentration for half-maximal inhibition (IC50) is 1700 ± 200 nM.
As for `CC(C)Nc1cc(C(F)(F)F)cc2nc(NC(=O)c3cccnc3)nn12` [Example 99, N-[5-(isopropylamino)-7-(trifluoromethyl)[1,2,4]triazolo[1,5-a]pyridin-2-yl]nicotinamide], the IC50 is 42 ± 7 nM.
Regarding `O=C(Nc1nc2cccc(-c3ccoc3)n2n1)c1ccc(C(F)(F)F)cc1` [Example 3, N-[5-(3-furyl)[1,2,4]triazolo[1,5-a]pyridin-2-yl]-4-(trifluoromethyl)benzamide], the IC50 was 8000 ± 400 nM.
On to `O=C(Nc1nc2cccc(NC3CCCCC3)n2n1)c1ccc(NCCCO)nc1` [Example 132, N-[5-(cyclohexylamino)[1,2,4]triazolo[1,5-a]pyridin-2-yl]-6-[(3-hydroxypropyl)amino]nicotinamide], for which the IC50 came out at 91 ± 26 nM.
Consider `O=C(Nc1nc2cccc(-c3ccoc3)n2n1)c1cccnc1` [Example 2, N-[5-(3-furyl)[1,2,4]triazolo[1,5-a]pyridin-2-yl]nicotinamide], for which the half-maximal inhibitory concentration (IC50) stood at 700 ± 200 nM.
For the molecule `CC(C)=Cc1cccc2nc(NC(=O)c3cccnc3)nn12` [Example 94, N-[5-(2-methylprop-1-en-1-yl)[1,2,4]triazolo[1,5-a]pyridin-2-yl]nicotinamide dihydrochloride], the half-maximal inhibitory concentration (IC50) was 5900 nM.
`O=C(Nc1nc2cccc(SC3CCCCC3)n2n1)c1cccnc1` [Example 83, N-[5-(cyclohexylthio)[1,2,4]triazolo[1,5-a]pyridin-2-yl]nicotinamide]: the IC50 turned out to be 1900 ± 200 nM.

For the next test, the system named is LPS-induced TNFα release. Kind of test: Lipopolysaccharide (LPS)-induced TNFα release assay in mice. It is filed as in vivo. The note with it: 30 mg/kg po, female C3H mice, given 15 min prior to LPS 0.3 mg/kg ip, blood sampled 90 min later. As to the method:
The administration of LPS induces the release of TNFα from white blood cells (monocytes, macrophages, Kupffer cells, etc) and endothelial cells into the blood. This is a model for cytokine release that occurs during inflammation. […] ASK1 mediates free radical pathways. Based on this mechanism, the blockade of ASK1 by specific inhibitors should reduce LPS-induced TNFα release in mice.
Female C3H mice (Elevage Janvier) (8 week old), received E. Coli's LPS (O111:B4, Sigma, 0.3 mg/kg, ip) after the administration of the test articles. Ninety min later, the animals were sacrificed and the blood was sampled. Plasma levels of TNFα were determined in serum using an ELISA kit (R&D). LPS was solubilized in sterile saline.
The test articles were suspended in 0.5% CMC/0.25% Tween 20 and administered 15 min prior the challenge of LPS by oral route at the doses of 3 to 30 mg/kg. Control animals received the vehicle. In time course experiments, the test articles were administered 15 min to 4 hrs prior the challenge of LPS. Dexamethasone (0.1 mg/kg, po) was used as reference.
The animals were divided into 5 groups (6 mice each group):
Inhibition of TNFα release was calculated as follows: % inhibition=100*([…])) Where TNFα 1=TNFα concentration in group 1 (pg/ml), TNFα X=TNFα concentration in group X (pg/ml).
`O=C(Nc1nc2cccc(NC3CC3)n2n1)c1cccnc1` [Example 30, N-[5-(cyclopropylamino)[1,2,4]triazolo[1,5-a]pyridin-2-yl]nicotinamide]: the “% inhibition of LPS-induced TNFα release in mice” value is reported as 43 ± 3%.
With `O=C(Nc1nc2cccc(-c3ccoc3)n2n1)c1cccnc1` [Example 2, N-[5-(3-furyl)[1,2,4]triazolo[1,5-a]pyridin-2-yl]nicotinamide], the “% inhibition of LPS-induced TNFα release in mice” value was 49 ± 8%.
